Laboratory results published in US20240150691A1, “BILE DUCT CHIP AND USE THEREOF” (Kyoto University, priority 2021, published 2024).
One block for each compound: values may come before it.

Assays:
[1] = Drug absorption in microfluidic device without PHH (LC-MS/MS); format: physicochemical; conditions: for Drug absorption rate: Microfluidic device/Polystyrene plate, without PHH
Protocol: (§1) A culture medium containing MDZ, DIC, PHE, BUF, or MPHT was added to a microfluidic device or a polystyrene plate. Subsequently, 1, 2, and 4 hours after the addition of the drugs, the amounts of these drugs were quantified with LC-MS/MS.
as §1, with “APAP (a CYP1A2 metabolite), 1OH-MDZ (a CYP3A4 metabolite), 4OH-DIC (a CYP2C9 metabolite), 4OH-MPHT (a CYP2C19 metabolite),” for “MDZ, DIC, PHE, BUF,”, “1OH-BUF (a CYP2D6 metabolite)” for “MPHT”
Subsequently, it was examined whether the absorption of the drugs and metabolites could be predicted by the relative physicochemical characteristics between the microfluidic device and the polystyrene plate. The drug absorption rate between the microfluidic device and the polystyrene plate was calculated. Subsequently, a correlation coefficient R^2 value between the drug absorption rate and the physicochemical characteristics (DiffCoef, M Log P, S+Log P, S+log D, MWt, and tPSA) of the drugs was calculated.

CYP2D6 = biological target: T1, CYP2D6 (Homo sapiens, UniProt P10635); assay: Measurement of CYP activity using CYP substrates in PHH (BUF to 1OH-BUF); format: in vitro ADME; conditions: 10 μM BUF
T1 construct: endogenous in cells; host or cells: primary human hepatocytes (PHH)
Protocol: (§2) The LC-MS/MS analysis was carried out to measure the activity of CYP. Prior to a CYP substrate treatment, PHH was cultured in DMEM containing 10 mM HEPES for 30 minutes. Subsequently, the PHH was cultured in a culture medium containing 5 μM MDZ (the metabolite thereof is 1OH-MDZ), 50 μM MPHT (the metabolite thereof is 4OH-MPHT), 5 μM DIC (the metabolite thereof is 4OH-DIC), 10 μM BUF (the metabolite thereof is 1OH-BUF), or 50 μM PHE (the metabolite thereof is APAP). The supernatant was recovered 1, 2, and 4 hours after the treatment with the substrate. At the time of recovering the supernatant, an equal amount of a culture medium containing the substrate was added.
(§3) The recovered supernatant was mixed with acetonitrile (FUJIFILM Wako Pure Chemical Corporation) containing an equal volume of 5 μM propranolol (internal standard). The specimen was filtered through a Cosmonice Filter W (Nacalai Tesque, Inc.) having a pore size of 0.45 μm, the supernatant was subsequently analyzed by LC-MS/MS, and the concentration of the metabolite was measured based on the standard curve. […]
(§4) Subsequently, the drug metabolic activities of the PHH cultured in the PDMS device and the PS plate were compared. […] Subsequently, after 1, 2, and 4 hours, the amounts of the metabolites (OH-MDZ, 4OH-DIC, APAP, 1OH-BUF, and 4OH-MPHT) generated in the culture medium were measured by LC-MS/MS.

CYP2C9 = biological target: T2, CYP2C9 (Homo sapiens, UniProt P11712); assay: Measurement of CYP activity using CYP substrates in PHH (DIC to 4OH-DIC); format: in vitro ADME; conditions: 5 μM DIC
T2 construct: endogenous in cells; host or cells: primary human hepatocytes (PHH)
Protocol: as §2, §3, §4

CYP2C19 = biological target: T3, CYP2C19 (Homo sapiens, UniProt P33261); assay: Measurement of CYP activity using CYP substrates in PHH (MPHT to 4OH-MPHT); format: in vitro ADME; conditions: 50 μM MPHT
T3 construct: endogenous in cells; host or cells: primary human hepatocytes (PHH)
Protocol: as §2, §3, §4

CYP1A2 = assay: Measurement of CYP activity using CYP substrates in PHH (PHE to APAP); format: in vitro ADME, human; conditions: 50 μM PHE
Protocol: The supernatant was recovered 1, 2, and 4 hours after the treatment with the substrate.

[2] = Acetaminophen-induced cytotoxicity, WST-8 assay; format: cell-based, human; conditions: human, PHH cultured on the polystyrene plate
Protocol: (§5) PHH was exposed to 10 mM APAP (FUJIFILM Wako Pure Chemical Corporation) for 4 days. Cell viability was measured according to a WST-8 assay. The WST-8 assay was carried out using a Cell Counting Kit-8 (Dojindo Molecular Technologies. Inc.) according to the instruction manual. The cell viability was calculated as a percentage with respect to cells not subjected to a drug treatment.
(§6) The drug responsiveness of the PHH cultured in the microfluidic device and the polystyrene plate was evaluated. PHH was treated with acetaminophen (APAP), which is known to cause drug-induced liver damage at a high concentration, in order to investigate whether or not drug-induced liver damage can be evaluated in PHH cultured in a microfluidic device. PHH was seeded in a microfluidic device or a polystyrene plate and cultured for 24 hours. Subsequently, the PHH was exposed to 10 mM acetaminophen for 4 days. Subsequently, cell viability was measured according to a WST-8 assay.
(§7) Subsequently, the hepatotoxicity of PHH due to acetaminophen was examined. The PHH cultured on the polystyrene plate was exposed to acetaminophen at various concentrations for 4 days. Subsequently, cell viability was measured according to a WST-8 assay. […] The data is indicated as average value±standard deviation (n=3).

PHH = assay: Acetaminophen-induced cytotoxicity, WST-8 assay; format: cell-based, human; conditions: 10 mM acetaminophen, 4 days
Protocol: as §5, §6, §7

T2 sequence (P11712 whole entry): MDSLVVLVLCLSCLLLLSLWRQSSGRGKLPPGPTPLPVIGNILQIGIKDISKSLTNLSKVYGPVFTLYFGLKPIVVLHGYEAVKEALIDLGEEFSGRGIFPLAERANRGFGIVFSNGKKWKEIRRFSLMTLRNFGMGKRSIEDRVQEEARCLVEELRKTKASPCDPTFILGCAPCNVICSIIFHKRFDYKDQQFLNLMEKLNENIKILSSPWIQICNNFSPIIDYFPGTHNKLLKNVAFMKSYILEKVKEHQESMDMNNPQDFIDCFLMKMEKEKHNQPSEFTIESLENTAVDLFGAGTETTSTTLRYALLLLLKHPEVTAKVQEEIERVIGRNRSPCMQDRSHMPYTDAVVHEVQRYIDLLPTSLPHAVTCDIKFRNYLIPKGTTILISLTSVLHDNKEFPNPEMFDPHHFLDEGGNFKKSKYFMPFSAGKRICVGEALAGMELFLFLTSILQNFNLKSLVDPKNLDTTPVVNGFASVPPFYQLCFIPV
T3 sequence (P33261 whole entry): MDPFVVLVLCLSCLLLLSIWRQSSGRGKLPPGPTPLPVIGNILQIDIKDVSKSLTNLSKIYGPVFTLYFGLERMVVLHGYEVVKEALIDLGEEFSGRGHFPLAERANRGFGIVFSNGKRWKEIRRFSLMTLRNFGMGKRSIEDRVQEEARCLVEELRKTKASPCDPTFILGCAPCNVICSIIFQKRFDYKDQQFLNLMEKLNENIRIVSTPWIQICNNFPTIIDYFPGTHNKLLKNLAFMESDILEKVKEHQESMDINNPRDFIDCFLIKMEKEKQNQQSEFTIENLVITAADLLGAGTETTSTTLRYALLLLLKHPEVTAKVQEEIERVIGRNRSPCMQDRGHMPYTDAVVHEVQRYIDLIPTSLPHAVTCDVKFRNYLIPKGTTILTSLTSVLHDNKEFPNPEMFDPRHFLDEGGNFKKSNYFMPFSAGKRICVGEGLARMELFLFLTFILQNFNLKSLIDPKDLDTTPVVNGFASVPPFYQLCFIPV
T1 sequence (P10635 whole entry): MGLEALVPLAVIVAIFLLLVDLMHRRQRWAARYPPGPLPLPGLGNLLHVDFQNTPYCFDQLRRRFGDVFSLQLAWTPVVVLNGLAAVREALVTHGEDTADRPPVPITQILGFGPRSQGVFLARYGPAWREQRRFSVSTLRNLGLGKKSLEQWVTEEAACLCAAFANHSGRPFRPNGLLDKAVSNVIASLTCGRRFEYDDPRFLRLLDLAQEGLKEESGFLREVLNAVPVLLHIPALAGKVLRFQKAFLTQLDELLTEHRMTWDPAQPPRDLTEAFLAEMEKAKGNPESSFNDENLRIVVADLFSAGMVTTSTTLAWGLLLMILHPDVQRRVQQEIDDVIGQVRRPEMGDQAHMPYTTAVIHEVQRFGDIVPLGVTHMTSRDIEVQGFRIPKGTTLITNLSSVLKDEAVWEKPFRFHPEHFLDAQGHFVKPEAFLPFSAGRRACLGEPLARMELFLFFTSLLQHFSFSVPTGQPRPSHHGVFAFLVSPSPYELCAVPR

Drug absorption rate [1]: 0.9648
absorption in the microfluidic device ([1]; PDMS device without PHH): not absorbed
formation rate of metabolite, microfluidic device versus polystyrene plate (CYP2D6): similar
Compound: CC(O)c1cccc2cc(C(O)CNC(C)(C)C)oc12 (centres unmarked) [1-hydroxybufuralol]

Compound: O=C(O)Cc1ccccc1Nc1c(Cl)cc(O)cc1Cl [4-hydroxy diclofenac, 4-hydroxydiclofenac]
Drug absorption rate [1]: 0.725
formation rate of metabolite, microfluidic device versus PS plate (CYP2C9): significantly lower

Drug absorption rate [1]: 0.8633
formation rate of metabolite, microfluidic device versus PS plate (CYP2C19): significantly lower
Compound: CCC1(c2ccc(O)cc2)NC(=O)N(C)C1=O (centres unmarked) [4-hydroxymephenytoin]

Drug absorption rate [1]: 0.8987
formation rate of metabolite, microfluidic device versus polystyrene plate (CYP1A2): similar
Compound: CC(=O)Nc1ccc(O)cc1 [Acetaminophen, acetaminophen]
CC50 at 4 days [2]: 9.4 mM
cell viability, microfluidic device versus polystyrene plate (PHH): significantly lower
